Laboratory results from ChEMBL document CHEMBL4818999, “Pyrido[2, 3-d]pyrimidin-7(8H)-ones as new selective orally bioavailable Threonine Tyrosine Kinase (TTK) inhibitors” (Eur J Med Chem, 2021).

What was measured:
[1] = molecular target: T1, Dual specificity protein kinase TTK (Homo sapiens, UniProt P33981); experiment: Inhibition of recombinant full-length human TTK using MBP as substrate incubated for 40 mins in presence of [gamma33P]ATP by scintillation counting based radiometry assay relative to control
T1 sequence (P33981 whole entry): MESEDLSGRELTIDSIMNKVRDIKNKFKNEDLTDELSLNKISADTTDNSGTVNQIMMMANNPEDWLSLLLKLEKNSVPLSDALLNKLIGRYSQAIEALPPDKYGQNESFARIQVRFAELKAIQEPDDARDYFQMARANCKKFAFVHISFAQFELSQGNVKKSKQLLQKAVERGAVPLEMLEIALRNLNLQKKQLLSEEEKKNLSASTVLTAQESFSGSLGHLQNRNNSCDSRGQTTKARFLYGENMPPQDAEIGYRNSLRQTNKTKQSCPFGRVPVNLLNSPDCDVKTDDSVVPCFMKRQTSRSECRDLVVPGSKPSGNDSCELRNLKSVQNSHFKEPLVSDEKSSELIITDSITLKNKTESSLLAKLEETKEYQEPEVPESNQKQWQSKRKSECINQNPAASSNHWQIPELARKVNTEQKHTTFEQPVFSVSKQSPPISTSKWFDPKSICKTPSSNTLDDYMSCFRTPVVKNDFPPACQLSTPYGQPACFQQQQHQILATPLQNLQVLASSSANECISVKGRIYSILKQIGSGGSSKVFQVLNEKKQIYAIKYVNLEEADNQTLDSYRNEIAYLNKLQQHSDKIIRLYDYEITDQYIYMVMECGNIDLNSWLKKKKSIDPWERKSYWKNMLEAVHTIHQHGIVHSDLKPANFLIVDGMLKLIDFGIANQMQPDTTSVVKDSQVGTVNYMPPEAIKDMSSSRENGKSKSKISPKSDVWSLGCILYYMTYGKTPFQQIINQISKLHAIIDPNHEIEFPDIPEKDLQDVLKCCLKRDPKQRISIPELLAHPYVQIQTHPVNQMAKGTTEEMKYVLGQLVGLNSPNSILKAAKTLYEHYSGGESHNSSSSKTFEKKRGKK

[2] = molecular target: Phosphatidylinositol 4,5-bisphosphate 3-kinase catalytic subunit delta isoform (Homo sapiens, UniProt O00329); experiment: Binding affinity to wild-type human partial length PIK3CD (R108 to Q1044 residues) expressed in HEK293 cells by active site-directed competition binding based Kinomescan method; type: cell-based
[3] = molecular target: T2, Death-associated protein kinase 3 (Homo sapiens, UniProt O43293); experiment: Binding affinity to wild-type human partial length DAPK3 (M1 to A277 residues) expressed in bacterial expression system by measuring active site-directed competition binding based Kinomescan method
[4] = molecular target: Phosphatidylinositol 3-kinase C2 domain-containing subunit gamma (Homo sapiens, UniProt O75747); experiment: Binding affinity to human partial length PIK3C2G (M1 to I1446 residues) expressed in mammalian expression system by active site-directed competition binding based Kinomescan method
[5] = system: COLO 205; experiment: Antiproliferative activity against human COLO-205 cells assessed as growth inhibition after 96 hrs by CCK8 assay; type: functional, cell-based; conditions: COLO 205, 96 h
[6] = system: A549; experiment: Antiproliferative activity against human A549 cells assessed as growth inhibition after 96 hrs by CCK8 assay; type: functional, cell-based; conditions: A549, 96 h
[7] = system: NCI-H460; experiment: Antiproliferative activity against human NCI-H460 cells assessed as growth inhibition after 96 hrs by CCK8 assay; type: functional, cell-based; conditions: NCI-H460, 96 h
[8] = system: HCT-116; experiment: Induction of apoptosis in human HCT-116 cells assessed as viable cells at 1000 nM incubated for 48 hrs by annexin V and 7-AAD staining based flow cytometry analysis (reference value: 82.09 %); type: functional; conditions: read-out: Activity
[9] = system: HCT-116; experiment: Induction of apoptosis in human HCT-116 cells assessed as early apoptotic cells at 111.1 nM incubated for 48 hrs by annexin V and 7-AAD staining based flow cytometry analysis (reference value: 8.12 %); type: functional
[10] = system: HCT-116; experiment: Induction of apoptosis in human HCT-116 cells assessed as early apoptotic cells at 1000 nM incubated for 48 hrs by annexin V and 7-AAD staining based flow cytometry analysis (reference value: 8.12 %); type: functional
[11] = system: HCT-116; experiment: Induction of apoptosis in human HCT-116 cells assessed as late apoptotic cells at 333.3 nM incubated for 48 hrs by annexin V and 7-AAD staining based flow cytometry analysis (reference value: 8.59 %); type: functional
[12] = system: HCT-116; experiment: Induction of apoptosis in human HCT-116 cells assessed as late apoptotic cells at 333.3 nM incubated for 48 hrs by annexin V and 7-AAD staining based flow cytometry analysis (reference value: 1.20 %); type: functional
[13] = Half life in Sprague-Dawley rat at 25 mg/kg, po; type: ADME, organism-based; conditions: in vivo
[14] = Clearance in Sprague-Dawley rat at 5 mg/kg, iv; type: ADME, organism-based; conditions: in vivo
[15] = system: HCT-116; experiment: Antitumor activity at human HCT-116 cells xenografted in CB17-SCID mouse assessed as tumor growth inhibition at 50 mg/kg, po administered daily, 2days on/ 4 days off and measured every 2 days for 16 days relative to control; type: functional; conditions: HCT-116, po, 384 h, time 16 day, read-out: TGI
[16] = system: HCT-116; experiment: Antitumor activity at human HCT-116 cells xenografted in CB17-SCID mouse assessed as tumor growth inhibition at 50 mg/kg, po administered once daily for 16 days in combination with paclitaxel at 20 mg/kg, ip once weekly relative to control; type: functional; conditions: HCT-116, 384 h, time 16 day, read-out: TGI
[17] = Toxicity in CB17-SCID mouse xenografted with human HCT-116 cells xenografted assessed as liver damage at 50 mg/kg, po administered once daily relative to control; type: organism-based; conditions: in vivo
[18] = molecular target: T2, Death-associated protein kinase 3; conditions: dose 100.0 nM
Description: Inhibition of human DAPK3 at 100 nM by direct-filter Binding radiometric assay relative to control

[19] = molecular target: MAP/microtubule affinity-regulating kinase 3 (Homo sapiens, UniProt P27448); conditions: dose 100.0 nM
[20] = molecular target: Death-associated protein kinase 1 (Homo sapiens) (UniProt P53355); conditions: dose 100.0 nM
[21] = molecular target: Maternal embryonic leucine zipper kinase (Homo sapiens) (UniProt Q14680); conditions: dose 100.0 nM
[22] = molecular target: Casein kinase II subunit alpha (Homo sapiens) (UniProt P68400); conditions: dose 100.0 nM
[23] = molecular target: Death-associated protein kinase 2 (Homo sapiens) (UniProt Q9UIK4); conditions: dose 100.0 nM
Description: Inhibition of human recombinant full length DAPK2 using Calmodulin as substrate at 100 nM direct filter-binding radiometric kinase activity assay relative to control

[24] = molecular target: Phosphatidylinositol 3-kinase C2 domain-containing subunit gamma (Homo sapiens) (UniProt O75747); conditions: dose 100.0 nM
Description: Inhibition of PIK3C2G (unknown origin) at 100 nM direct filter-binding radiometric kinase activity assay relative to control

[25] = molecular target: Phosphorylase b kinase gamma catalytic chain, liver/testis isoform (Homo sapiens) (UniProt P15735); conditions: dose 100.0 nM
Description: Inhibition of human recombinant PHKG2 using ZIPtide at 100 nM direct filter-binding radiometric kinase activity assay relative to control

[26] = molecular target: Mitogen-activated protein kinase 9 (Homo sapiens) (UniProt P45984); conditions: dose 100.0 nM
Description: Inhibition of human recombinant JNK2 using ATF2 at 100 nM direct filter-binding radiometric kinase activity assay relative to control

[27] = organism: Homo sapiens; conditions: dose 100.0 nM
Description: Inhibition of PIPK5 (unknown origin) at 100 nM direct filter-binding radiometric kinase activity assay relative to control

Chain of Phosphatidylinositol 3-kinase C2 domain-containing subunit gamma (Homo sapiens) (O75747 whole entry, the tested form may be a part, canonical isoform): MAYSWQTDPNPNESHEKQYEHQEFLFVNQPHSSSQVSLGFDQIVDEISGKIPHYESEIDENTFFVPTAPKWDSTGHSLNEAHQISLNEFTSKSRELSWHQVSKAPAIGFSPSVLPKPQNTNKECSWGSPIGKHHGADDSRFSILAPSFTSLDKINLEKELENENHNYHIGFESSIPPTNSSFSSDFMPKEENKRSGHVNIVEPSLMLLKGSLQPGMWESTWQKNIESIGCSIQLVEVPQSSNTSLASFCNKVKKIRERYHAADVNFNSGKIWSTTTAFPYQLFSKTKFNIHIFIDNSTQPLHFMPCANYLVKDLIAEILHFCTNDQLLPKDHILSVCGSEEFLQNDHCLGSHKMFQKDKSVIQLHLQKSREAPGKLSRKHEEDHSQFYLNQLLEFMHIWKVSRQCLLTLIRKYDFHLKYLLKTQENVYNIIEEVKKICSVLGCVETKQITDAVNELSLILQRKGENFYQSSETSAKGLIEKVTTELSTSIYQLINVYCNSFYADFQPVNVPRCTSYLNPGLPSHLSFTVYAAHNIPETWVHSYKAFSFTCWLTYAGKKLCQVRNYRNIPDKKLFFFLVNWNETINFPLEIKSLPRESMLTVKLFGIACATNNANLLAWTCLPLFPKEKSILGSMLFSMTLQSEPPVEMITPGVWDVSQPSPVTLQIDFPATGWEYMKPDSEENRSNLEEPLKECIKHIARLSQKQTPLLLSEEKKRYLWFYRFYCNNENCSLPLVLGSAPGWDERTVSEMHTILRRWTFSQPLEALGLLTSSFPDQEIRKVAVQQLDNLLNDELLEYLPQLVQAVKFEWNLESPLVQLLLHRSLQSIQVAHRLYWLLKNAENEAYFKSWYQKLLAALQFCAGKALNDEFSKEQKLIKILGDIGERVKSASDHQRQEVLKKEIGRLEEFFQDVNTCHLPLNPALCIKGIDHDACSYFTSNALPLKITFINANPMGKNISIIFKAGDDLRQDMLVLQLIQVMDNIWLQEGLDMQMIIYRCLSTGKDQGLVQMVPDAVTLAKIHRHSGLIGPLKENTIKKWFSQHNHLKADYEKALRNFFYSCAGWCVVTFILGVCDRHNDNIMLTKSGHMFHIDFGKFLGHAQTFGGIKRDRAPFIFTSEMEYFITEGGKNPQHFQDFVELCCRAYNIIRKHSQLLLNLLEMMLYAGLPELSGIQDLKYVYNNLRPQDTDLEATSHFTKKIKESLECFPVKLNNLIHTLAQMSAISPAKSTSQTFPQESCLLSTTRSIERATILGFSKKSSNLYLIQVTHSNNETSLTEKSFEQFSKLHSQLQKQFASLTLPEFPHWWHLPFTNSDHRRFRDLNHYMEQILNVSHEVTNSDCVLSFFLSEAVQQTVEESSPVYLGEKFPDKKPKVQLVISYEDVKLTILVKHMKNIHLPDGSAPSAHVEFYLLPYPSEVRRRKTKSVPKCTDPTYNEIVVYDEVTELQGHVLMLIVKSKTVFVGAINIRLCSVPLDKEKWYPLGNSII
Chain of Phosphatidylinositol 3-kinase C2 domain-containing subunit gamma (O75747 whole entry, the tested form may be a part): as the sequence (O75747 whole entry, the tested form may be a part, canonical isoform) above
Chain of Death-associated protein kinase 2 (Homo sapiens) (Q9UIK4 whole entry, looked up, the tested form may be a part): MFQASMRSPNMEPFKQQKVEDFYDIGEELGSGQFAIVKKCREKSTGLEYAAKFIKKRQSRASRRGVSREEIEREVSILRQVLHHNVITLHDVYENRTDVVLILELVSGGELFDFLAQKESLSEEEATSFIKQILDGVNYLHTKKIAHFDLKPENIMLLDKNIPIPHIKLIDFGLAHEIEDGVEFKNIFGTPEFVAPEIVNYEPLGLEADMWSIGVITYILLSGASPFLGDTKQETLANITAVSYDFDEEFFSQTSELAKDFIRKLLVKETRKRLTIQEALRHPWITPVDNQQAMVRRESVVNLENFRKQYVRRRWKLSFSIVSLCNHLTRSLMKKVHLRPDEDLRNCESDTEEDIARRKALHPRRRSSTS
Chain of Maternal embryonic leucine zipper kinase (Homo sapiens) (Q14680 whole entry, looked up): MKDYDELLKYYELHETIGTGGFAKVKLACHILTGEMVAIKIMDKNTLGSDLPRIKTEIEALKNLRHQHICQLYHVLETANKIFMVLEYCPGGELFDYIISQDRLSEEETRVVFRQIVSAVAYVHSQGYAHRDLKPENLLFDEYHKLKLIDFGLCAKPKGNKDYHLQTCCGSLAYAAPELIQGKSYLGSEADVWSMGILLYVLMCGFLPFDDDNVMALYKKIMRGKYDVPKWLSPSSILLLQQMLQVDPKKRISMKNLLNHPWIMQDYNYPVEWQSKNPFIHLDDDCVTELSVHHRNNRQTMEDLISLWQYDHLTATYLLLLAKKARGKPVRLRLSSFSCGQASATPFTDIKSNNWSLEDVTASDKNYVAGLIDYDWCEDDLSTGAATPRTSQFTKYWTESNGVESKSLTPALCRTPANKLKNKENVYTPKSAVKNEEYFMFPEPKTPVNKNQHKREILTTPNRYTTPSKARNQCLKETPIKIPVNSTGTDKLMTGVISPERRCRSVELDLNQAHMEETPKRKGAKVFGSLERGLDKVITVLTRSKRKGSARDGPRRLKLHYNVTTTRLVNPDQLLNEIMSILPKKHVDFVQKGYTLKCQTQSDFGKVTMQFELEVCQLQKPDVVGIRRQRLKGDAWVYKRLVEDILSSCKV
Chain of Phosphatidylinositol 4,5-bisphosphate 3-kinase catalytic subunit delta isoform (O00329 whole entry, the tested form may be a part, canonical isoform): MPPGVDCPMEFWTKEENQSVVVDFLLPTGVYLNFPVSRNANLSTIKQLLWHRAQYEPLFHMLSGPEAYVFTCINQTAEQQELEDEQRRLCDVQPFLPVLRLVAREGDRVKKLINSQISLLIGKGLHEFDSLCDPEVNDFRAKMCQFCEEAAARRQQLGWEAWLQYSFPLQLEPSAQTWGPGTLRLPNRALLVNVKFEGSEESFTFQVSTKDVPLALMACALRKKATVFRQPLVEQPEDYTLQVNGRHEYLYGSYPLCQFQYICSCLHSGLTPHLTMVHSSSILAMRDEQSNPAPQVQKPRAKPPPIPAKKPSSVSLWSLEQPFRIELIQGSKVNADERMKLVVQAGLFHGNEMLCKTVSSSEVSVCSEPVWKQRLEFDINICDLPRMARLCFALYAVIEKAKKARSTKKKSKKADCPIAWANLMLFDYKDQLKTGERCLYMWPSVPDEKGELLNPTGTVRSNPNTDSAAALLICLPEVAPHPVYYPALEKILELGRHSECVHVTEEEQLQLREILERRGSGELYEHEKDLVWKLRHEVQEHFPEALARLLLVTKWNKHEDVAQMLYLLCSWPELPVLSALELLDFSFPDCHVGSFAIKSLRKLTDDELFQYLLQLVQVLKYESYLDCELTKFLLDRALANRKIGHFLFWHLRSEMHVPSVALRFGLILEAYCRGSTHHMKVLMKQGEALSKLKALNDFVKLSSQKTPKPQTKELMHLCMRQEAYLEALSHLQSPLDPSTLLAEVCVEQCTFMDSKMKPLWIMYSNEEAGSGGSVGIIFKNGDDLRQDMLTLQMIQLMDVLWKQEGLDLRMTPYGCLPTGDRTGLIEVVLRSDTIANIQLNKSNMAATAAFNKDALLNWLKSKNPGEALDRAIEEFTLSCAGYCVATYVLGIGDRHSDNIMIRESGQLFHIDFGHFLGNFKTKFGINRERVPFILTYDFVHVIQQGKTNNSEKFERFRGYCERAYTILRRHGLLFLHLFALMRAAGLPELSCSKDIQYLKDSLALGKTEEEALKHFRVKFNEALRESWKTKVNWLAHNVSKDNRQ
Chain of Mitogen-activated protein kinase 9 (Homo sapiens) (P45984 whole entry, looked up): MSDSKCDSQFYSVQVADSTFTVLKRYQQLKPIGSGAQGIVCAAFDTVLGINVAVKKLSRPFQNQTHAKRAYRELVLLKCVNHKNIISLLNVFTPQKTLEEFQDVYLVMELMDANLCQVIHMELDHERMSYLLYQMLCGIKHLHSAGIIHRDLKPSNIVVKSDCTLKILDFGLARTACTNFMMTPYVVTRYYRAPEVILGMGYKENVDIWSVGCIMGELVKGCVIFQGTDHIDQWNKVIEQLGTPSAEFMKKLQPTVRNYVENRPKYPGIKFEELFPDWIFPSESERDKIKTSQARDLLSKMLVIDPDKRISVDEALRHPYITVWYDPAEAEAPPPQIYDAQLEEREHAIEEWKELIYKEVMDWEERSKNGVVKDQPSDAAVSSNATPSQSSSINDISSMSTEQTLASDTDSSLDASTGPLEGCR
Chain of Phosphorylase b kinase gamma catalytic chain, liver/testis isoform (Homo sapiens) (P15735 whole entry, canonical isoform): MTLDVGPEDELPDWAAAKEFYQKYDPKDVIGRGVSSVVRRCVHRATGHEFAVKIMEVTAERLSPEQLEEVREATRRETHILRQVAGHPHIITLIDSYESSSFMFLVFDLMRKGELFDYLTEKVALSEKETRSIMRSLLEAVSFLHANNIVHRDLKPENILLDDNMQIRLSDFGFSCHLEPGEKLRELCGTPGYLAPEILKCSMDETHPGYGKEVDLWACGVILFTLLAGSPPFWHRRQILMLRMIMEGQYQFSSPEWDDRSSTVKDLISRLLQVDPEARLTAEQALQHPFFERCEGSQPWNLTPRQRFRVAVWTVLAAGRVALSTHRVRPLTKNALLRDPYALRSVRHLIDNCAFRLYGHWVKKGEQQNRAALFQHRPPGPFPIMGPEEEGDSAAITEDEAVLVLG
Chain of Casein kinase II subunit alpha (Homo sapiens) (P68400 whole entry, looked up): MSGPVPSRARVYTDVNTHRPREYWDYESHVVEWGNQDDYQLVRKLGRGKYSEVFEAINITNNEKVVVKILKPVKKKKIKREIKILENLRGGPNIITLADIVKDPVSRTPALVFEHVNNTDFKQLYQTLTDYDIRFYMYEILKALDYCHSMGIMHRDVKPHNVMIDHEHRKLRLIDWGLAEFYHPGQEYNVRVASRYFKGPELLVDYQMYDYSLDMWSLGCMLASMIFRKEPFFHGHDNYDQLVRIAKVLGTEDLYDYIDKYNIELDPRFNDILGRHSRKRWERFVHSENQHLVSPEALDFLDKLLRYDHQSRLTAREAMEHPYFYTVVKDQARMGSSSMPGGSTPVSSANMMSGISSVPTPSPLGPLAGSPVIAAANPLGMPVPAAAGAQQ

Structure (SMILES): COc1cc(N2CCN(C)CC2)ccc1Nc1ncc2c(C)cc(=O)n([C@H]3CC[C@@H](NC(=O)C4CCCCC4)CC3)c2n1
- IC50 [1]: 23 nM
- Kd [2]: > 1000 nM
- Kd [3]: 13 nM
- Kd [4]: > 1000 nM
- IC50 [5]: 280 nM
- IC50 [6]: 4400 nM
- IC50 [7]: 1090 nM
- viability at 1 µM [8]: 56.6%
- Activity [9]: 4.46%
- Activity [10]: 18.81%
- Activity [11]: 13.81%
- Activity [12]: 2.04%
- half-life [13]: 6.01 h
- clearance [14]: 15.8 mL/min/kg
- inhibition in vivo at 50 mg/kg [15]: 29%
- inhibition in vivo at 50 mg/kg [16]: 78%
- Activity [17]: Non-Toxic
- inhibition [18]: 94.5%
- inhibition [19]: 92%
- inhibition [20]: 85%
- inhibition [21]: 77%
- inhibition [22]: 69%
- inhibition [23]: 65%
- inhibition [24]: 94.4%
- inhibition [25]: 87%
- inhibition [26]: 86%
- inhibition [27]: 77%
